Assay results reported in patent US20230146675A1, “PYRIMIDO[5,4-d]PYRIMIDINE DERIVATIVES AS ENT INHIBITORS FOR THE TREATMENT OF CANCERS, AND COMBINATION THEREOF WITH ADENOSINE RECEPTOR ANTAGONISTS” (ITEOS BELGIUM SA, priority 2020, published 2023).

Assays:
[1] = biological target: T1, Human phosphodiesterase-10A2 (Homo sapiens, UniProt Q9Y233); test: PDE10A2 (h) assay; type: biochemical
T1 construct: host or cells: Sf9 cells
Description: (§1) The test compound (compound 72), reference compound or water (control) were added to a buffer containing 40 mM Tris/HCl (pH 7.4) and 8 mM MgCl2, 180 nM cAMP and 0.1 μCi [3H]cAMP. Thereafter, the reaction was initiated by addition of the enzyme (about 0.8 U) and the mixture was incubated for 20 min at 22° C. For basal control measurements, the enzyme was omitted from the reaction mixture. Following incubation SPA beads were added. After 30 min at 22° C. under shaking, the amount of [3H]5′AMP was quantified with a scintillation counter (MicroBeta, Perkin Elmer). The results were expressed as a percent inhibition of the control enzyme activity. The standard inhibitory reference compound was trequinsin, which was tested in each experiment at several concentrations to obtain an inhibition curve from which its IC50 value was calculated. • Human phosphodiesterase-10A2 quantified by measuring the formation of 5′AMP from cAMP using a human recombinant enzyme expressed in Sf9 cells.
The test compound (compound 72), reference compound or water (control) were added to a buffer containing 40 mM Tris/HCl (pH 7.4) and 8 mM MgCl2, 180 nM cAMP and 0.1 μCi [3H]cAMP. […] After 30 min at 22° C. under shaking, the amount of [3H]5′AMP was quantified with a scintillation counter (MicroBeta, Perkin Elmer). The results were expressed as a percent inhibition of the control enzyme activity. […]

[2] = biological target: T2, human ENT1 (Homo sapiens, UniProt Q99808); test: Uridine transport inhibition assay (3H-uridine uptake, MDCKII-ENT1-LV cells); type: cell-based; settings: 3H-uridine (1 μM), 1 min at 25° C.
T2 sequence (Q99808 1-456): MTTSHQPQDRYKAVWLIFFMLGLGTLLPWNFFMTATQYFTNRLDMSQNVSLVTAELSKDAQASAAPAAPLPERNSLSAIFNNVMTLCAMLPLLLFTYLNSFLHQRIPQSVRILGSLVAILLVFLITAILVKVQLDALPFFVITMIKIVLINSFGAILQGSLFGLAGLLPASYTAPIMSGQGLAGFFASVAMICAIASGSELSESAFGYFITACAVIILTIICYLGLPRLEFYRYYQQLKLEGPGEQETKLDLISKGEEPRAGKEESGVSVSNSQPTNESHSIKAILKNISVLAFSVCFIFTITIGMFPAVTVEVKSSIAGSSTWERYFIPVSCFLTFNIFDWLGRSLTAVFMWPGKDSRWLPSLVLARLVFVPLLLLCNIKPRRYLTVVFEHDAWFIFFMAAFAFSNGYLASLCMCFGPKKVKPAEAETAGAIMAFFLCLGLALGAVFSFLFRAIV
From the text: Purpose. The aim of this study was to determine the potency of equilibrative nucleoside transporter 1 (ENT1) inhibitors by measuring ENT1-mediated transport is the cellular uptake assay. The human ENT1 transporter can be stably expressed in Madin-Darby Canine Kidney II (MDCKII) cells via transduction. Uridine is efficiently transported by ENT1 and is used as probe in the assay as 3H-uridine. The interaction is detected as the modulation of the initial rate of 3H-uridine transport by human ENT1 into MDCKII-ENT1-LV cells stably expressing ENT1 uptake transporter.

[3] = biological target: T2, human ENT1; test: ENT1 binding assay (competition with Sahenta-DY647 on JAR cells); parameters: JAR cells expressing ENT1 were bought from ATCC; host or cells: JAR cells; settings: binned IC50
Method in brief: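 JAR cells were incubated with test compounds and the fluorescent ligand Sahenta-DY647 in competition. Plates were washed twice by centrifugation (4 min, 400 rcf, 4 °C). Binding potency was derived from the final fluorescence.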

[4] = biological target: T3, Human phosphodiesterase-4A1A (Homo sapiens, UniProt P27815); test: PDE4A1A (h) assay; type: biochemical
T3 construct: host or cells: Sf9 cells
T3 sequence (P27815 1-647 isoform P27815-4): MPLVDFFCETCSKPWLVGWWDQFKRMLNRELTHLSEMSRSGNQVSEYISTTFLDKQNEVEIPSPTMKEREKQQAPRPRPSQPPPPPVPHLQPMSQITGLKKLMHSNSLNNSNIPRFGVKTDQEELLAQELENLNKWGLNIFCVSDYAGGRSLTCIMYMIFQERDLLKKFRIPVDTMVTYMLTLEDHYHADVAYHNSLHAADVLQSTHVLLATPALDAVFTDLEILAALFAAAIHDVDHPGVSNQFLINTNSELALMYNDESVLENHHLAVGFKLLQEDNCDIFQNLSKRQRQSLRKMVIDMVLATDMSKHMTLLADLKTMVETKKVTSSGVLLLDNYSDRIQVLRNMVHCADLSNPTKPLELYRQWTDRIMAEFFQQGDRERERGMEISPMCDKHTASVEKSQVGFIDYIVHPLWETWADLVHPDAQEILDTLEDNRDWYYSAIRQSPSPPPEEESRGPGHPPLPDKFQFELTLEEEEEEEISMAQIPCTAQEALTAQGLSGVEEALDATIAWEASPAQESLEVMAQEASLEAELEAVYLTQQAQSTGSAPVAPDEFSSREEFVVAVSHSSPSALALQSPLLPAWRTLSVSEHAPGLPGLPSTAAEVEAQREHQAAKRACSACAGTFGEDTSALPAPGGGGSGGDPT
Description: The test compound (compound 72), reference compound or water (control) were added to a buffer containing 40 mM Tris/HCl (pH 7.4) and 8 mM MgCl2, 450 nM cAMP and 0.25 μCi [3H]cAMP. Thereafter, the reaction was initiated by addition of the enzyme (about 3 U) and the mixture was incubated for 20 min at 22° C. For basal control measurements, the enzyme was omitted from the reaction mixture. Following incubation SPA beads were added. After 30 min at 22° C. under shaking, the amount of [3H]5′AMP was quantified with a scintillation counter (MicroBeta, Perkin Elmer). The results were expressed as a percent inhibition of the control enzyme activity.
as §1, with “450” for “180”, “0.25” for “0.1”, “Thereafter, the reaction was initiated by addition of the enzyme (about 0.8 U) and the mixture was incubated for 20 min at 22° C. For basal control measurements, the enzyme was omitted from the reaction mixture. Following incubation SPA beads were added.” left out, “Ro 20-1724,” for “trequinsin,”, “phosphodiesterase-4B1” for “phosphodiesterase-10A2”

T1 sequence (Q9Y233 267-1055): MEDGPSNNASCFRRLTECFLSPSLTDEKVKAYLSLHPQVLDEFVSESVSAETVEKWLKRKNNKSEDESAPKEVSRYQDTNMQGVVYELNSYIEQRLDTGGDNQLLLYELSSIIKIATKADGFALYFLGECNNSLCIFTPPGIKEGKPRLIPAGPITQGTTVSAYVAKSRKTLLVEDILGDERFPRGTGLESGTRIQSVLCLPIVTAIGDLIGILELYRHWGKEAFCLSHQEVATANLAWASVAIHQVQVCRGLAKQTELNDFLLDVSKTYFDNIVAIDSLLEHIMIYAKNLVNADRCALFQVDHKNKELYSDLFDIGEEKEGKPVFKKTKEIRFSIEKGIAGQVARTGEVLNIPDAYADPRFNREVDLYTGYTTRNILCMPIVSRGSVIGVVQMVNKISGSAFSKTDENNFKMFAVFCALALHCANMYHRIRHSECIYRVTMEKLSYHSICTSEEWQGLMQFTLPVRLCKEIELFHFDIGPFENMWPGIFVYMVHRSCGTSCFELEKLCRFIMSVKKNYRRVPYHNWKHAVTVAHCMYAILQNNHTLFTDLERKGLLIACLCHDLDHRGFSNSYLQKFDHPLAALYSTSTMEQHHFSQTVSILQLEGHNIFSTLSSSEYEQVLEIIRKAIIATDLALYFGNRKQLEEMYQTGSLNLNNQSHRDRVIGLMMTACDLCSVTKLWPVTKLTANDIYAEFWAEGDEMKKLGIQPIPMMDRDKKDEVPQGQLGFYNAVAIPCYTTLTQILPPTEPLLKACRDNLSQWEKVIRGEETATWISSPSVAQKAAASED

IC50 [1]: 1 to 10 µM
IC50 [2]: < 0.1 µM
IC50 [3]: < 0.1 µM
IC50 [4]: > 10 µM
SMILES: COCCN(CCOC)c1nc(N2CCN(C)C(=O)C2)c2nc(N(CCOC)CCOC)nc(N3CCC(OC)CC3)c2n1 [Compound 72, 4-(2,6-bis(bis(2-methoxyethyl)amino)-8-(4-methoxypiperidin-1-yl)pyrimido[5,4-d]pyrimidin-4-yl)-1-methylpiperazin-2-one]
